Measured values published in patent publication US8198285B2, “Pyrazine derivatives” (Astrazeneca AB, priority 2010, dated 2012).
pIC50: −log10 of the molar value. Counter-ions that a name gives are not always drawn.

Assays:
[1] = biological target: T1, human GSK3β enzyme (Homo sapiens, UniProt P49841); assay: In vitro GSK3β kinase assay (FRET, Z'-LYTE), Test (a); format: biochemical; conditions: read-out: IC50 versus human GSK3β enzyme
T1 construct: His6 (N); purchased Millipore 14-306; host or cells: baculovirus / Sf21 insect cells
From the text: This biochemical assay used a Fluorescence Resonance Energy Transfer (FRET)-based, coupled-enzyme format to determine the ability of test compounds to inhibit substrate phosphorylation by recombinant GSK3β serine/threonine kinase (Kleman-Leyer, K. et al. Drug Disc. Devel. 2003, 6:81-2). The substrate used in this assay was Z′-LYTE™ ser/Thr 9 peptide and the FRET assay kit was obtained from Invitrogen (Paisley, UK, catalogue number PV3324). N-terminal His6-tagged recombinant human GSK313, with an H350 L mutation, was expressed in baculovirus in Sf21 insect cells, purified and obtained from Millipore (Billerica, Mass., USA, catalogue number 14-306 Human).
Test compounds were prepared as 10 mM stock solutions in dimethylsulphoxide (DMSO) and diluted in DMSO as required. Aliquots (2.5 μl) of compound dilutions were added to the wells of an Optiplate-F PerkinElmer 384-well plate (Massachusetts, USA, catalogue number 6007270). Control wells that produced a maximum signal corresponding to maximum enzyme activity were created by using 100% phosphorylated peptide obtained from Invitrogen (Paisley, UK, catalogue number PV3326). A 5 μl aliquot of 100% phosphorylated peptide (100 μM in 1.33× kinase buffer) was added to all maximum control wells. 2.5 μl of 4% DMSO solution (v/v) in 1.33× kinase buffer was added to maximum control wells. Control wells that produced a minimum signal corresponding to 100% inhibited enzyme were created by adding 2.5 μl of 40 μM Staurosporine in 1.33× kinase buffer containing 4% DMSO (v/v). A 5 μl mixture of GSK3β (100 ng/μl) enzyme and non-phosphorylated substrate (Z-LYTE™ ser/Thr 9 peptide, 100 μM) in a 1.33× kinase buffer solution was added to each well except maximum control wells and the assay plate centrifuged at 270 g for 1 minute. The kinase buffer used 1.33× was obtained from Invitrogen (Paisley, UK, catalogue number PV3189) and contained 67 mM HEPES (pH 7.5), 13 mM MgCl2, 1.3 mM EGTA, 0.01% BRIJ-35. Then 2.5 μl adenosine triphosphate (28 μM) in kinase buffer was added per well, centrifuged at 270 g for 1 minute and then the assay plate was shaken for 1 hour at room temperature. A proprietary development solution was prepared by adding 58 μl of development reagent A (Invitrogen, Paisley, UK, catalogue number PV3297) to 2142 μl of development reagent B (Invitrogen, Paisley, UK, catalogue number P3127). […]
The resultant signals arising from laser light excitation at 400 nm were read using a Perkin Elmer Envision spectrophotometer (Perkin Elmer, Massachusetts, USA). […] A ratiometric method, which calculates the ratio (the Emission Ratio) of donor emission to acceptor emission after excitation of the donor fluorophore at 400 nm, quantitates reaction progress, as shown in the equation below. […]

[2] = biological target: CHK2 (checkpoint kinase 2) (Homo sapiens, UniProt O96017); assay: Inhibitory activity against CHK2; format: biochemical
CHK2 (checkpoint kinase 2), sequence (O96017 whole entry, species assumed): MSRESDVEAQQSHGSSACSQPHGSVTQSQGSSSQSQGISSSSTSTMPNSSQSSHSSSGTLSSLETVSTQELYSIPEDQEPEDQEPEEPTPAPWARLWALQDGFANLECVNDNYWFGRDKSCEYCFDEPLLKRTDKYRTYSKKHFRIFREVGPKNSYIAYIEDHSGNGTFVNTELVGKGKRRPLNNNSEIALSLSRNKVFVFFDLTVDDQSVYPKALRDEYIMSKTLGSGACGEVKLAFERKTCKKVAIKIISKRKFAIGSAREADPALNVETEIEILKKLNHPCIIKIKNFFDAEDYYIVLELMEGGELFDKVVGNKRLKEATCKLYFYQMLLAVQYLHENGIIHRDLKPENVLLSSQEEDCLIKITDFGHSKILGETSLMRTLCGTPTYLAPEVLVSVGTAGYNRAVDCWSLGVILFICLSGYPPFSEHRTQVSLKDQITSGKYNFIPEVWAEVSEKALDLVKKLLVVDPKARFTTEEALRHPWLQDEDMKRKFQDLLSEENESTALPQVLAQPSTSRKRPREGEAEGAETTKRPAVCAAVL

T1 sequence (P49841 whole entry): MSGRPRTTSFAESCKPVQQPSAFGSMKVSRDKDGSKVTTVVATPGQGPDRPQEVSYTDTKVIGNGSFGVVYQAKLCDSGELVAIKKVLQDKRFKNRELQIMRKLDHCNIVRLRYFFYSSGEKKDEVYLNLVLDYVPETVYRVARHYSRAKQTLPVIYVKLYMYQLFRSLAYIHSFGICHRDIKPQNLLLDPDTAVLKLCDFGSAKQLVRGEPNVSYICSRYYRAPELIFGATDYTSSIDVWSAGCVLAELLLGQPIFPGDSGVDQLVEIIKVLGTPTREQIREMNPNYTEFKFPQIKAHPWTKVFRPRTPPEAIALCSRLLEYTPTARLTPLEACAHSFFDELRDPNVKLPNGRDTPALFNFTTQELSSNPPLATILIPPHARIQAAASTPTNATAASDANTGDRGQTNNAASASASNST

SMILES: COCCCNCCCc1ccc(-c2cnc(N)c(C(=O)Nc3cccnc3)n2)cc1 [Example 1, 3-Amino-6-(4-{3-[(3-methoxypropyl)amino]propyl}phenyl)-N-pyridin-3-ylpyrazine-2-carboxamide tri-hydrochloride]
- pIC50 [1]: ~7.46
- Inhibitory activity against CHK2 [2]: inhibitory activity
